Reference: US20110144125A1, “Anti-Arrhythmia Agents, Methods of Their Use, Methods of Their Identification and Kits Therefore” (THE UAB RESEARCH FOUNDATION, priority 2008, published 2011)
Several values for one entry are separate records, joined by “and”; a condition that tells them apart may be missing. Equal values may be shown once. Read-outs that look alike come from different tables or passages of the source.

Key:
[1] = system: rat left atria; experiment: Left atrial force of contraction / post-rest potentiation maximum force
Experimental: Left atria were isolated from male Sprague-Dawley rats (325 to 400 g) under IP pentobarbital anesthesia (0.1 g/kg). Isolated left atria were superfused at 30° C. in Krebs-Henseleit (KH) buffer of the following mM composition: NaCl, 118; NaHCO3, 27; KCl, 4.8; MgSO4, 1.2; KH2PO4, 1.0; CaCl2, 1.8; and glucose, 11.1. Nearly isometric left atrial forces of contraction were measured as described.
The initial potentiated beat following prolonged rest (i.e., the PRP maximum force of contraction) reflects activator calcium available for SR release. The PRP response was used to obtain an indirect measure of left atrial SR calcium under our conditions.
Left atria (n=6) were superfused in KH, paced at 0.1 Hz, and subjected to PRP. Superfusion proceeded for another 35 min, and a second PRP was performed. These 2 forces were compared to assure the mechanical stability of our preparations.
One group (n=8) was superfused in KH, paced at 0.1 Hz, and their maximum force of contraction was measured. These atria were washed with KH containing 82 mM sodium, and a second PRP was performed 23 min later.
A second group (n=8) was paced at 0.1 Hz in KH and subjected to PRP. They were exposed to 22 μM 2-APB and, after the appearance of SMA, were washed with KH containing 22 μM 2-APB and 82 mM sodium. Superfusion continued for 23 min and a second PRP was performed.
Control 0.1 Hz paced atria (n=8) were subjected to PRP and exposed to 400 μM DIDS, and a second PRP was performed 23 min later.
A group of atria (n=8) were paced at 0.1 Hz in KH and subjected to PRP. They were exposed to 22 μM 2-APB, 400 μM DIDS was added to the superfusate after the appearance of SMA, and a second PRP was performed 23 min later.
Left atria (n=8 per group) were paced at 3 Hz and (i) titrated with 0 to 30 nM isoproterenol (Ahlquist, 1970) or (ii) exposed to 3 μM forskolin (Laurenza et al., 1980). Left atrial force and frequency of contraction, the time to peak tension and relaxation times were recorded after a 3-5 min exposure to forskolin or to any concentration of isoproterenol. The 3 Hz pacing stimulus was interrupted at the end of these protocols to measure SMEs.
Left atria (n=6 per group) were paced at 3 Hz, titrated with 0 to 300 nM (−)BayK 8644 ([…]-1,4-Dihydro-2,6-dimethyl-5-nitro-4-[2-(trifluormethyl)phenyl]-3-pyridinecarboxylic acid methyl ester; Franckowiak et al. 1985) or FPL-64176 ((2,5-Dimethyl-4-[2-(phenylmethyl)benzoyl]-111-pyrrole-3-carboxylic acid methyl ester; Zheng et al., 1991) and their mechanical function and rates of SMA were recorded after a 5 min exposure to any concentration of slow calcium channel activator.
To test whether ryanodine receptor calcium leak produces SMA, left atria (n=6 per group) were paced at 0.1 Hz, treated with 0 or 300 nM BayK 8644 for 5 min, and then exposed to 600 nM ryanodine (Sutko et al., 1997). Atrial mechanical function and rates of SMA were recorded 20 min after exposure to ryanodine.
Left atria (n=7) were paced at 3 Hz, treated with 120 μM ouabain (Illanes and Marshall, 1964), and any change in mechanical function was recorded at a new steady state, ˜10 min later. These atria were exposed to 20 μM 2-APB and their mechanical function and rates of SMA were recorded 10 min later.
To test whether zatebradine affects left atrial force of contraction, two groups of left atria (n=9 per group) were paced at 3 Hz and treated with 300 nM BayK 8644. Five minutes later one group was incubated with six increasing concentrations of zatebradine (10-100 μM) for 3-5 min at each concentration, and forces of contraction were recorded. A second group was treated with BayK 8644 but not zatebradine, and forces of contraction were recorded at corresponding times.

[2] = system: rat left atrial appendage; experiment: 2-APB-induced spontaneous mechanical activity (SMA/SMEs) in isolated superfused rat left atria / left atrial appendage
[3] = no 2-APB, 30 nM isoproterenol, 3 μM forskolin, 300 nM BayK 8644 or FPL-64176, 120 μM ouabain, 600 nM ryanodine

| Compound | left atrial force of contraction with agent alone [1] | ectopic activity (SMEs/SMA/STA) with agent alone [2] | left atrial force of contraction with agent alone [1, 3] | ectopic activity (SMEs/SMA/STA) with agent alone [2, 3] | other results |
| --- | --- | --- | --- | --- | --- |
| NCCOB(c1ccccc1)c1ccccc1 [2-APB, 2-aminoethoxydiphenyl borate] | – | – | – | – | maximum force of atrial contraction [1]: also decreased; maximum force of left atrial contraction [1]: significantly decreased; 2-APB concentration giving intermittent increases in left atrial mechanical force independent of pacing (SMEs) [2]: > 7.5 µM; 2-APB concentration producing sporadic mechanical events in the absence of pacing stimulus [2]: > 10 M; SMEs during rest [2]: numerous SMEs during rest; SMEs giving way to SMA [2]: Repeated SMEs; SMEs in slowly paced preparations [2]: only few SMEs; rate of SMA [2]: 47±6 contractions/min and ~50 contractions/min |
| COC(=O)C1=C(C)NC(C)=C([N+](=O)[O-])[C@H]1c1ccccc1C(F)(F)F [BayK 8644, (45)-1,4-Dihydro-2,6-dimethyl-5-nitro-4-[2-(trifluormethyl)phenyl]-3-pyridinecarboxylic acid methyl ester] | increase left atrial force of contraction | SMA or SMEs do not occur | – | – | – |
| COC(=O)c1c(C)[nH]c(C)c1C(=O)c1ccccc1Cc1ccccc1 [FPL-64176, 2,5-Dimethyl-4-[2-(phenylmethyl)benzoyl]-111-pyrrole-3-carboxylic acid methyl ester] | increase left atrial force of contraction | SMA or SMEs do not occur | – | – | – |
| CC(C)NCC(O)c1ccc(O)c(O)c1 (stereo not drawn) [isoproterenol] | – | – | increase left atrial force of contraction | quiescent in the absence of pacing | – |
| C[C@@H]1O[C@@H](O[C@H]2C[C@@H](O)[C@]3(CO)[C@H]4[C@H](O)C[C@]5(C)[C@@H](C6=CC(=O)OC6)CC[C@]5(O)[C@@H]4CC[C@]3(O)C2)[C@H](O)[C@H](O)[C@H]1O [ouabain] | – | – | doubles their force of contraction | does not affect their mechanical stability | – |
| ryanodine | Time-dependent decreases in force of contraction | SMEs, SMA or STA does not occur | – | – | – |
